Data on two molecules can be found in publication PMC10283505, “CVM-1118 (foslinanib), a 2-phenyl-4-quinolone derivative, promotes apoptosis and inhibits vasculogenic mimicry via targeting TRAP1” (Pathology and Oncology Research, 2023).

One experiment deals with Nodal. Briefly: Western blot of Nodal (ProNodal) protein. Format: cell-based, human. Particulars: C8161, 10 nM, 24 h, corrected to β-actin. The procedure: Cells at 80% confluence were rinsed with PBS, harvested by scrapping into a modified RIPA buffer plus protease inhibitor cocktail using 100 μL buffer per 1 × 10^6 cells. After sonication and centrifugation, the protein concentrations in the supernatants were determined using a BCA assay (Thermo Fisher Scientific). […] Nodal was detected using a mouse monoclonal anti-Nodal antibody (sc-373910; Santa Cruz; 1 μg/ml in 20 mM Tris/150 mM NaCl/0.1% [w/v] Tween 20, pH 7.4 [TBST] plus 5% BSA) followed by an anti-mouse plus horseradish peroxidase (HRP) secondary antibody (NXA931; GE Healthcare; 1 μg/ml in TBST plus 5% BSA) and enhanced chemiluminescence (ECL; GE Healthcare). Smad2 was detected using a rabbit polyclonal anti-Smad2/3 antibody (07-408; Millipore; 1 μg/ml in TBST plus 5% BSA) followed by an anti-rabbit plus HRP secondary antibody (NA934V; GE Healthcare; 1 μg/ml in TBST plus 5% BSA) and ECL. […] To assess relative changes in protein expression, the exposed films were digitized using a ChemiDoc XRS imager (Bio-Rad Laboratories) and the relative amount of protein determined against the untreated control cells normalized to a value of 1.0 using the imager’s Quantity One software package (Bio-Rad Laboratories) and corrected for loading of protein into each lane against the β-actin protein measured in the control lane.

Another experiment deals with NCI-H460. Briefly: NCI 60 cytotoxicity screening. It is filed as cell-based. As to conditions: Homo sapiens; NCI-H460, NSCLC.
The subject of the next experiment is A498. Briefly: NCI 60 cytotoxicity screening. Particulars: Homo sapiens; A498, Renal. It is filed as cell-based.
Another experiment deals with PC-3. Briefly: NCI 60 cytotoxicity screening. Format: cell-based. Particulars: Homo sapiens; PC-3, Prostate.
The next experiment has as its target T1, Catenin β-1 (Homo sapiens, UniProt P35222).
T1 sequence (P35222 1-781): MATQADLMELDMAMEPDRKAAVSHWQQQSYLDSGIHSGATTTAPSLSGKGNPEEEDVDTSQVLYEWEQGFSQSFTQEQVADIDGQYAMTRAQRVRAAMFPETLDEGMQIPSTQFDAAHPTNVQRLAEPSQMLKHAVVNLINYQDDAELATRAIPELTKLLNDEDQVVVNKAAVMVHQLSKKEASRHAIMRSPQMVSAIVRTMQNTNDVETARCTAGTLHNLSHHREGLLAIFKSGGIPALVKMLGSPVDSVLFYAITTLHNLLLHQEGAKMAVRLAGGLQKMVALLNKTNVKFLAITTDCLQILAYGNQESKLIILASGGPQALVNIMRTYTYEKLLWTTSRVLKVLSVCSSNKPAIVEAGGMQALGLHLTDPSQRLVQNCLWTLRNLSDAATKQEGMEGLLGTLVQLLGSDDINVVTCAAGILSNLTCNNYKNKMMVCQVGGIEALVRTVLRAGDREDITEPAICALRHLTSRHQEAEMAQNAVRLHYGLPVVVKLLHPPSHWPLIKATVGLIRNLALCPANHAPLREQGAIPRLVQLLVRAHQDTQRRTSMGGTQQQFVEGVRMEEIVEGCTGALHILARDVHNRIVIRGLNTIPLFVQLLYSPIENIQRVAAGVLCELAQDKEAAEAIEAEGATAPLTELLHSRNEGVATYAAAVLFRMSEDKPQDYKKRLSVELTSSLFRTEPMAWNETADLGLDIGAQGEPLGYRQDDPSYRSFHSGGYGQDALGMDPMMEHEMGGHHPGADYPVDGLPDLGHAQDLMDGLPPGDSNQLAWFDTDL
Nature of the experiment: Surface plasmon resonance (Biacore). Format: binding. As to conditions: Catenin β-1, SPR.

For the next experiment, the system named is UACC-62. Briefly: NCI 60 cytotoxicity screening. As to conditions: Homo sapiens; UACC-62, Melanoma. Format: cell-based.
For another experiment, the system named is HL-60(TB). Nature of the experiment: NCI 60 cytotoxicity screening. It is filed as cell-based. As to conditions: Homo sapiens, Leukemia.
For the next experiment, the system named is HIF-1α. Nature of the experiment: Western blot of HIF-1α protein (hypoxia). Format: cell-based, human. As to conditions: hypoxia 72 h. The protocol:
Changes in the expression HIF-1α protein in SK-MEL28, SK-OV3, MDA-MB-231 and COLO205 cells in response to treatment with CVM-1125 was performed as follows: 5.0 × 10^6 cells were grown under hypoxic conditions (as previously described) for 72 h, with or without 100 nM CVM-1125 in T175 culture flasks, then sub-confluent cultures harvested and whole cell protein lysates prepared and analyzed by Western blot (as above). Thirty micrograms of protein was loaded per lane of the gel for each sample followed by detection of HIF-1α protein on the final blot using a polyclonal rabbit anti- HIF-1α antibody (#3716; Cell Signaling Technologies), secondary antibody plus HRP (NA934V), then ECL. The blots were then stripped and re-probed for β-actin protein as a control (as above).

Another experiment concerns the target TGFβ1/1 (HIC5) (Homo sapiens, UniProt O43294). Briefly: Surface plasmon resonance (Biacore). It is filed as binding. As to conditions: TGFβ1/1, SPR.
In another experiment the test system is A549/ATCC. Nature of the experiment: NCI 60 cytotoxicity screening. Format: cell-based. As to conditions: Homo sapiens, NSCLC.

Chain of TGFβ1/1 (HIC5) (O43294 whole entry): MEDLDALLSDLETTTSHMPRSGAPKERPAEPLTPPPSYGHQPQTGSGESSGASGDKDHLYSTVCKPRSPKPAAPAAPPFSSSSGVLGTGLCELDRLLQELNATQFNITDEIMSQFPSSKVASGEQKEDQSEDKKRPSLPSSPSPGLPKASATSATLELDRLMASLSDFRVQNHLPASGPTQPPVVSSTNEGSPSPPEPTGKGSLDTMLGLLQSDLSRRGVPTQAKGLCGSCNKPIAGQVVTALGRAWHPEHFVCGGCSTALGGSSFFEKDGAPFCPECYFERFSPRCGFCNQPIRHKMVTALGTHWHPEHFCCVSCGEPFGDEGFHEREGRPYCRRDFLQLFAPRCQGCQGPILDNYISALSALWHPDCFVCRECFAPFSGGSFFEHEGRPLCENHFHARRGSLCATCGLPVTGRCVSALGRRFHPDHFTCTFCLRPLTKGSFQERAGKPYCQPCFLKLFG

Consider `COc1ccc2[nH]c(-c3cccc(F)c3)cc(=O)c2c1OP(=O)(O)O` [CVM-1118], for which the “reduction of Nodal protein levels” value in the experiment with Nodal is reported as 63%.

For the molecule `COc1ccc2[nH]c(-c3cccc(F)c3)cc(=O)c2c1O` [CVM-1125], the GI50 with NCI-H460 amounted to 0.0328 µM; in the experiment with A498, 0.0248 µM; in the experiment with PC-3, 0.0326 µM; with UACC-62, 0.031 µM; in the experiment on HL-60(TB), 0.0222 µM; in the experiment on A549/ATCC, 0.0414 µM. For the same molecule, the “Association (ka)” value on Catenin β-1 is recorded as “No interaction”; at TGFβ1/1 (HIC5), “No dose dependent interaction”. In addition, the “Dissociation (kd)” value is on record as “No interaction” on Catenin β-1 and “No dose dependent interaction” on TGFβ1/1 (HIC5). The “KD (kd/ka)” value on Catenin β-1 is recorded as “No interaction”; on TGFβ1/1 (HIC5), “No dose dependent interaction”. The “reduction of HIF-1α protein levels” value is 9% in the experiment on HIF-1α (COLO205, 100 nM); 17% in the experiment on HIF-1α (MDA-MB-231, 100 nM); 28% in the experiment with HIF-1α (SK-MEL28, 100 nM); 25% with HIF-1α (SKOV3, 100 nM).
